In US7399608B2, “Microbial detection and quantification” (Kimberly-Clark Worldwide, Inc., priority 2003, dated 2008):

Tests used:
[1] = test system: bacteria in aged chicken juice; experiment: Dye solution dropped onto aged chicken juice on SCOTT paper towel (comparative examples); settings: comparative dye solution dropped onto aged chicken juice on SCOTT paper towel
Bleach indicator test = format: physicochemical; settings: mixture with Reichardt's dye coated on SCOTT towel
[2] = test system: bacteria in aged chicken juice; experiment: N-docosyl-merocyanine dye coated onto cotton fabric, aged chicken juice; settings: 47 mg in 10 g dimethylformamide, supernatant on woven cotton
[3] = test system: budgerigar feces suspension; experiment: N-methyl merocyanine coated paper towel, pet bird feces suspension; settings: Atlanta city domestic tap water
Method: Budgerigar feces was collected from a caged pet budgie, and shaken in approximately 10 ml of Atlanta city domestic tap water. N-methyl merocyanine dye of structure 33 above was synthesized as described above.

[4] = test system: microbes in aged female human urine; experiment: N-methylmerocyanine coated onto kitchen paper towel, aged urine

Compound | color change on aged chicken juice [1] | other results
O=C([O-])C1=NN(c2ccc(S(=O)(=O)[O-])cc2)C(=O)C1N=Nc1ccc(S(=O)(=O)[O-])cc1.[Na+].[Na+].[Na+] (centres unmarked) [Cl Acid Yellow 23, tartrazine] | No color changes were observed | –
Cc1cc(-c2cc(C)c(N)c(C)c2)cc(C)c1N [TMB, reference compound] | – | response of TMB to dilute bleach (Bleach indicator test): turning orange/yellow color
Cc1ccc(Nc2ccc(Nc3ccc(C)cc3S(=O)(=O)[O-])c3c2C(=O)c2ccccc2C3=O)c(S(=O)(=O)[O-])c1.[Na+].[Na+] [Cl Acid Green 25] | No color changes were observed | –
CC(=O)Nc1ccc(/N=N/c2c(N)ccc3cc(S(=O)(=O)[O-])cc(O)c23)c(S(=O)(=O)[O-])c1.[Na+].[Na+] [Cl Acid Red 37] | No color changes were observed | –
CCCCCCCCCCCCCCCCCCCCCC[n+]1ccc(C=Cc2ccc(O)cc2)cc1.[Br-] | – | color change of orange-yellow dye spots on cotton [2]: color change to very pale yellow
COc1cc(/C=C/c2cc[n+](C)cc2)ccc1[O-] [N-methyl merocyanine dye] | – | color of coated towel with tap water control [3]: the area remained orange; color change with aged urine filtered through 0.2 micron filter ([4]; urine stored 24 hours at 37° C.): did not cause a color change; color change with aged urine filtered through 0.2 micron filter ([4]; urine stored 8 days at room temperature): did not cause a color change
Cc1ccc(Nc2ccc(Nc3ccc(C)cc3S(=O)(=O)[O-])c3c2C(=O)c2c(O)ccc(O)c2C3=O)c(S(=O)(=O)[O-])c1.[Na+].[Na+] [Cl Acid Green 41] | No color changes were observed | –
CCN(CC)c1ccc2c(-c3ccc(S(=O)(=O)O)cc3S(=O)(=O)[O-])c3ccc(=[N+](CC)CC)cc-3oc2c1 [Cl Acid Red 52, sulforhodamine B] | No color changes were observed | –
O=C1/C(=C2\Nc3ccc(S(=O)(=O)[O-])cc3C2=O)Nc2ccc(S(=O)(=O)[O-])cc21.[Na+].[Na+] [Cl Acid Blue 74, Indigo Carmine] | No color changes were observed | –
